Measurements from paper PMC5461640 (Pharmacology Research & Perspectives, 2017).
Read-outs that look alike come from different tables or passages of the source. Marks after values point to notes of the source that are not given here.

Tests used:
human OT receptors = biological target: T1, human OT receptors (Homo sapiens, UniProt P30559); type: cell-based
T1 construct: expressed in transfected cells; host or cells: HEK-293 cells (stably transformed, G418 selection)
T1 sequence (P30559 1-389): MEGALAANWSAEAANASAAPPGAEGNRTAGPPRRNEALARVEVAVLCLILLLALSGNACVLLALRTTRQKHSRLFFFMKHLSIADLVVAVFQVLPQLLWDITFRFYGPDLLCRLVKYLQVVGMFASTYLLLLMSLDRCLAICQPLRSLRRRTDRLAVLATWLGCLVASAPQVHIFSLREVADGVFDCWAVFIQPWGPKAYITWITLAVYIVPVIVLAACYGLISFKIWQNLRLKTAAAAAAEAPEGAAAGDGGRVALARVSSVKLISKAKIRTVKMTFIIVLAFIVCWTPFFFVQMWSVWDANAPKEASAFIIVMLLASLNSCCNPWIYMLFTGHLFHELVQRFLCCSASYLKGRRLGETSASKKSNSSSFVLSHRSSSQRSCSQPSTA
Method: Plasmid constructs were described previously (Amina et al. 2010). Human embryonic kidney HEK‐293 cells were maintained in Dulbecco's Modified Eagle's Medium (DMEM) supplemented with 10% fetal bovine serum (FBS) and Geneticin G418 100 μg/mL at 37°C in a humidified atmosphere of 95% air and 5% CO2. Cells were grown in culture dishes to 80–90% confluence and transfected with the expression plasmid pcDNAHOXTR‐376R or pcDNA3(+) (Invitrogen, Carlsbad, CA) (MOCK‐transfected cells), using FuGENE HD Transfection Reagent (Roche, Basel, Switzerland) in accordance with the manufacturer's instructions.
We measured [Ca^2+]i using the fluorescent Ca^2+ indicator fura‐2‐acetoxymethyl ester (fura‐2/AM). Transfected HEK‐293 cells were loaded with fura‐2/AM to a final concentration of 1 μmol/L in complete medium and incubated at 37°C as reported previously (Ma et al. 2013). After 30‐min loading, the cells were washed three times with HEPES‐buffered saline (HBS) solution (145 mmol/L NaCl, 5 mmol/L KCl, 1 mmol/L MgCl2, 20 mmol/L HEPES‐NaOH, 2 mmol/L CaCl2, 20 mmol/L glucose, pH 7.4). The fluorescence of the cells loaded with fura‐2/AM was then measured at 37°C, at the determined sites, through a pinhole (10–20 μm in diameter). We used alternating excitation wavelengths of 340 and 380 nm in a Ca^2+ microspectrofluorometric system (IX‐73 Model; Olympus, Tokyo, Japan) and Metafluor software (Molecular Devices, Sunnyvale, CA), as described previously (Hashii et al. 2000). […] The ratio of fluorescence at 340 nm and 380 nm (F340/F380) was used to determine [Ca^2+]i. All data were normalized to the baseline fluorescence (F0) recorded 10 s before addition, and given as F/F0 where F – maximal ratio of fluorescence after drug's application.

[1] = male, ICR, mouse, in vivo, ip, 100 ng/kg, 0.5 h
Method: Mouse CSF was obtained according the techniques described by Jin et al. (2007). […] Thirty minutes or 24 h later, the mice were anaesthetized with intraperitoneal injection of pentobarbital. The skin over the posterior neck was removed by two incisions, the first in the midline from the low cervical area to the anterior cranium and the second across the craniocervical junction. Subcutaneous tissue and nuchal muscles were exposed, sectioned along the rim of the occipital bone and then removed laterally unveiling the glistening clear arachnoid membrane overlying the cisterna magna. A micropipette was guided into the cisterna magna.
The micropipette was constructed by cutting a 30‐gauge needle with scissors to approximately 6–7 mm. The needle was then inserted 4–5 mm into the lumen of a 10 μL micropipette. CSF samples were obtained between 8.00 and 11.00 AM, and usually 5 μL of clear CSF was obtained.
(§1) Protein content was determined using a Bio‐Rad protein assay kit and bovine serum albumin assay standard (Bio‐Rad, Hercules, CA).

[2] = male, ICR, mouse, in vivo, ip, 100 ng/kg
Method: Thirty minutes or 24 h later, mice were anesthetized by an intraperitoneal injection of pentobarbital. Blood samples of 0.1 mL were collected by cardiac puncture in EDTA and aprotinin‐coated capillaries and centrifuged at 1600g for 15 min at 4°C. Plasma samples were collected and stored at –80°C until use.
as §1

[3] = drug responses at 10^−8 mol/L relative to OT as 100%, HEK‐293 cells expressing pcDNAHOXTR‐376R, mean ± SEM, n = 25

| Percentage of maximum Ca^2+ mobilization (human OT receptors; 10.0) | Structure (SMILES) | Percentage of maximum Ca^2+ mobilization (human OT receptors; [3]) | level of OT in the CSF [1] [ng/mL] | plasma level of OT ([2]; 0.5 h) [ng/mL] | plasma level of OT ([2]; 24 h) [ng/mL] |
| --- | --- | --- | --- | --- | --- |
| – | CCCCCCCCCCCCCCCC(=O)N[C@H]1CSSC[C@@H](C(=O)N2CCC[C@H]2C(=O)N[C@@H](CC(C)C)C(=O)NCC(N)=O)NC(=O)[C@H](CC(N)=O)NC(=O)[C@H](CCC(N)=O)NC(=O)[C@H]([C@@H](C)CC)NC(=O)[C@H](Cc2ccc(OC(=O)CCCCCCCCCCCCCCC)cc2)NC1=O [LOT‐1, lipo‐oxytocin‐1] | 12.6 ± 1.8 ^a ^, ^c % | – | – | – |
| 45.5 ± 0.83 ^a ^, ^b % | CCCCCCCCCCCCCCCC(=O)N[C@H]1CSSC[C@@H](C(=O)N2CCC[C@H]2C(=O)N[C@@H](CC(C)C)C(=O)NCC(N)=O)NC(=O)[C@H](CC(N)=O)NC(=O)[C@H](CCC(N)=O)NC(=O)[C@H]([C@@H](C)CC)NC(=O)[C@H](Cc2ccc(O)cc2)NC1=O [LOT‐2, lipo‐oxytocin‐2] | – | – | – | – |
| 13.1 ± 1.8 ^a ^, ^c % | CCCCCCCCCCCCCCCC(=O)Oc1ccc(C[C@@H]2NC(=O)[C@@H](N)CSSC[C@@H](C(=O)N3CCC[C@H]3C(=O)N[C@@H](CC(C)C)C(=O)NCC(N)=O)NC(=O)[C@H](CC(N)=O)NC(=O)[C@H](CCC(N)=O)NC(=O)[C@H]([C@@H](C)CC)NC2=O)cc1 [LOT‐3, lipo‐oxytocin‐3] | – | – | – | – |
| – | CC[C@H](C)[C@@H]1NC(=O)[C@H](Cc2ccc(O)cc2)NC(=O)[C@@H](N)CSSC[C@@H](C(=O)N2CCC[C@H]2C(=O)N[C@@H](CC(C)C)C(=O)NCC(N)=O)NC(=O)[C@H](CC(N)=O)NC(=O)[C@H](CCC(N)=O)NC1=O [OT, Oxytocin] | 100% | 0.347 ± 0.038 | 0.695 ± 0.052 | 0.547 ± 0.039 |
